From patent publication US7767398B2, “Means and methods for diagnosing and treating affective disorders” (Affectis Pharmaceuticals AG, priority 2003, dated 2010)

Assays:
P2X7R = molecular target: T1, P2X7R (Mus musculus, UniProt Q9Z1M0); assay: Entry of ethidium bromide into HT-22 cells; type: cell-based; conditions: HT-22 cells, 60 minutes, 10^−4M ethidium bromide; 1 μM to 1 mM tested
T1 construct: an immortalised mouse hippocampal cell line expressing the endogenous P2X7 gene; endogenous in cells; host or cells: HT-22 mouse hippocampal cell line
T1 sequence (Q9Z1M0 1-595): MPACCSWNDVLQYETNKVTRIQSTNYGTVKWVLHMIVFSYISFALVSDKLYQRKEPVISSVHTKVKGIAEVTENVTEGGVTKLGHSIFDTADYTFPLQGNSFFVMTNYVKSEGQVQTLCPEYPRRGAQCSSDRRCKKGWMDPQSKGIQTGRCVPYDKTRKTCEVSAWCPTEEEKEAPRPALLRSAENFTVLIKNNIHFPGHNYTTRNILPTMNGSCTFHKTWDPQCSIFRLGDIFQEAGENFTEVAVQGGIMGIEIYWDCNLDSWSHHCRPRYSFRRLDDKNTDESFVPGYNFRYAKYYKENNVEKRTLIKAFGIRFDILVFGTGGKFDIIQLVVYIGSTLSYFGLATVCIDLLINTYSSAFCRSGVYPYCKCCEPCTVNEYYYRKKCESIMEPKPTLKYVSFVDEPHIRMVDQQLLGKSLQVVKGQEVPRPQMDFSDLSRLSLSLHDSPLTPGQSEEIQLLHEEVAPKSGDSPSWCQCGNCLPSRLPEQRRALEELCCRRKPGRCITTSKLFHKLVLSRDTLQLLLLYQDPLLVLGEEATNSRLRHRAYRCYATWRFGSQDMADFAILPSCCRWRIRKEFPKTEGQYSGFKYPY
Text: Yet another method of measuring P2X7R activity involves the entry of ethidium bromide into P2X7R expressing cells. Activation of P2X7R by an agonist allows the entry of ethidium bromide which binds nuclear DNA and emits a fluorescence signal. Alternatively, the propidium dye YOPRO-1 can be substituted for ethidium bromide. An increase in fluorescence can be used as a measure of P2X7 receptor activation. Therefore, the assay can be used to test and quantify the effect of an agent or compound with agonist properties on P2X7R. In the present example, 10^3 HT-22 cells were seeded per well in a 96-well flat bottom microtitre plates and incubated at 37° C./5% CO2 in DMEM medium containing 10% FCS until the cells attached to the culture surface. […] The number of fluorescent cells which have integrated the ethidium bromide to the DNA can then be counted using a fluorescent microscope (Zeiss, Germany). […] Alternatively, ethidium bromide fluorescence can be measured using a Perkin-Elmer fluorescent plate reader (excitation 520 nm, emission 595 nm, slit widths: Ex 15 nm, Em 20 nm). From the readings obtained, a pIC50 figure can be calculated for each candidate agent or compound. […] The specificity of an agonist for P2X7R can be evaluated by pre-incubation of the cells for 60 minutes with 100 μM o-ATP before adding the agonist and ethidium bromide dye.

human P2X7R = molecular target: T2, human P2X7R (Homo sapiens, UniProt Q99572); assay: Calcium entry in HT-22 cells overexpressing human P2X7R (Fluo-4 AM); type: cell-based; conditions: 20 μM BzATP or 50 μM tenidap
T2 construct: expressed in transfected cells
T2 sequence (Q99572 1-595): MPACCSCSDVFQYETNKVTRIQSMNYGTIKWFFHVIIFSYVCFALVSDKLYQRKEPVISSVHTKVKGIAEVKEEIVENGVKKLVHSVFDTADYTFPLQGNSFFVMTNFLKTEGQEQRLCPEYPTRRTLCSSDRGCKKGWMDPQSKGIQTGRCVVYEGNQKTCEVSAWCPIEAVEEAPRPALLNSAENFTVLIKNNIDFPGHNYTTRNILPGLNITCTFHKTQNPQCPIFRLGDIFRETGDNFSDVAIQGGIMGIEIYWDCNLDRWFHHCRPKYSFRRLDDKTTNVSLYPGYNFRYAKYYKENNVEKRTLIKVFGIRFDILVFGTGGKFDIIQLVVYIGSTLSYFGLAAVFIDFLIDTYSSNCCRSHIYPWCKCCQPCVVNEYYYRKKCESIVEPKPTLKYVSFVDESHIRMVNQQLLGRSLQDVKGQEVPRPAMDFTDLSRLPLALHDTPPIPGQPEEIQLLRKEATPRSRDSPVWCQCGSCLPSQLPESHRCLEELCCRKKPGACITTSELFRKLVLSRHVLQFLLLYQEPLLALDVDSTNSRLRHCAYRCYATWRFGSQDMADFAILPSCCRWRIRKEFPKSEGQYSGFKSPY
Text: Yet another method for identifying P2X7R agonists was devised by generating a immortalised mouse cell line that overexpresses the human P2X7R gene under the control of the human cytomegalovirus (CMV) early promoter/enhancer region. The human P2X7R cDNA was inserted into the pcDNA3.1 vector (Invitrogen) and transfected into the mouse hippocampal cell line HT-22 using Lipofectamine (Invitrogen) according to the manufacturer's specifications. One day after transfection, culture medium containing 500 μg/ml G418 was added to the cells. Resistant clones were separately isolated and cultured 14 days after applying the selection medium.
The agonistic activity of a compound was evaluated by measuring calcium entry in the cells that overexpress the human P2X7R. Cells were cultured in 96 well plates and incubated at 37° C. with 5% C02 DMEM with 10% foetal calf serum (Gibco) until they reached confluence. Cells were then loaded for one hour with 10 μM of Fluo4 AM (Molecular Probes). Fluo-4 AM is a fluorescent dye that binds to intracellular calcium. […] Agonist activity was detected by measuring an increase in calcium influx which results in increased binding to Fluo4 AM and increased fluorescence. Changes in fluorescence signal are measured using a Fluostar Optima plate reader (BMG biotech). […] Thus, both compound stimulated the activity of P2X7R which results in an influx of ions into the cells.

2′-3′-O-(4-Benzoylbenzoyl)adenosine 5′-triphosphate [BzATP]
BzATP concentrations that increased the number of fluorescent nuclei (P2X7R): above 100 μM | calcium influx (Fluo-4 AM fluorescence intensity) (human P2X7R): rapid increase in fluorescence intensity
